Experimental data as given in PMC8653674, “Design, Synthesis, Docking Study and Biological Evaluation of 4-Hydroxy-2H-benzo[e][1,2]thiazine-3-carboxamide 1,1-dioxide Derivatives as Anti-HIV Agents” (Iranian Journal of Pharmaceutical Research : IJPR, 2021).
Read-outs that look alike come from different tables or passages of the source.

Experiments:
[1] = system: single-cycle replicable HIV NL4-3 virions in Hela cells; assay: single cycle HIV-1 replication assay (inhibition of p24 expression, capture ELISA); type: cell-based
Method: (§1) The anti-HIV-1 activity of target compounds was evaluated in a single cycle replication assay evaluated in our laboratory and reported previously. In this assay, the single-cycle replicable HIV NL4-3 virions (200 ng p24) were inoculated concurrently with compounds in different concentrations to the Hela cells. The inhibition rate (%) of p24 expression was measured by capture ELISA (Biomerieux, France) 72 hours after inoculation. Percentage inhibition of p24 expression in treated culture was calculated as inhibition rate of p24 (%). The XTT (sodium3-[1(phenylaminocarbonyl)-3,4-tetrazolium]-bis(4-methoxy-6-nitro)benzene sulfonic acid) proliferation assay was conducted to evaluate the cellular toxicity according to the kit instructions. The cytotoxic concentration that reduced the number of viable cells by 50% (CC50) was calculated after the determination of p24 load in the HIV-1 replication assay plates ([37]-[40]).
(§2) Fourteen 1,2-benzothiazine-3-carboxamide 1,1-dioxide derivatives containing different substituents at N-2 positions (12 and 13a-m) were synthesized and evaluated to inhibit the single-cycle HIV replication inhibition HeLa cell culture. Cytotoxicity of compounds was also tested in the same cell line to ensure the safety of compounds. Raltegravir was used as a positive control. Anti-HIV activity and cytotoxicity of compounds were expressed as EC50 and CC50, respectively. Selectivity Index (SI) was calculated using CC50/EC50 ratio.

Hela cells = assay: XTT proliferation assay for cellular toxicity; type: cell-based
Method: as §1, §2

[2] = XTT proliferation assay for cellular toxicity; type: cell-based; settings: human; cytotoxicity in Hela cells, XTT
Method: as §1, §2

[3] = system: single-cycle replicable HIV NL4-3 virions in Hela cells; set-up: method as in previously reported (b6); settings: piroxicam value in Table 1, said in b54 to be previously reported; ref previously reported (b6); cited from earlier work
[4] = Human immunodeficiency virus 1, NL43, HeLa, 72 h

| Molecule | EC50 ([1]; anti-HIV activity, single-cycle HIV NL4-3 in Hela cells, p24 at 72 hours, read-out: EC50) | CC50 (Hela cells) | melting point | EC50 [1, 4] | CC50 at 72 h [2] | EC50 [3] |
| --- | --- | --- | --- | --- | --- | --- |
| 2-(3,4-Dichlorobenzyl)-4-hydroxy-2H-benzo[e][1,2]thiazine-3-carboxamide 1,1-dioxide [Compound 13i] | 110 µM | 510 µM |  |  |  |  |
| NC(=O)C1=C(O)c2ccccc2S(=O)(=O)N1 [Compound 12, 4-hydroxy-2H-benzo[e][1,2]thiazine-3-carboxamide 1,1-dioxide] |  |  | 244 °C (dec.) | 105 µM | 950 µM |  |
| CCN1C(C(N)=O)=C(O)c2ccccc2S1(=O)=O [Compound 13a, 2-Ethyl-4-hydroxy-2H-benzo[e][1,2]thiazine-3-carboxamide 1,1-dioxide] |  |  |  | 80 µM | 550 µM |  |
| NC(=O)C1=C(O)c2ccccc2S(=O)(=O)N1CC1CCCCC1 [Compound 13b, 2-(Cyclohexylmethyl)-4-hydroxy-2H-benzo[e][1,2]thiazine-3-carboxamide 1,1-dioxide] |  |  | 263 to 264 °C | 100 µM | 400 µM |  |
| NC(=O)C1=C(O)c2ccccc2S(=O)(=O)N1Cc1ccccc1 [Compound 13c, 2-Benzyl-4-hydroxy-2H-benzo[e][1,2]thiazine-3-carboxamide 1,1-dioxide] |  |  | 270 to 275 °C | 45 µM | 600 µM |  |
| Cc1ccc(CN2C(C(N)=O)=C(O)c3ccccc3S2(=O)=O)cc1 [Compound 13d, 4-Hydroxy-2-(4-methylbenzyl)-2H-benzo[e][1,2]thiazine-3-carboxamide 1,1-dioxide] |  |  |  | 25 µM | 680 µM |  |
| Cc1ccccc1CN1C(C(N)=O)=C(O)c2ccccc2S1(=O)=O [Compound 13e, 4-Hydroxy-2-(2-methylbenzyl)-2H-benzo[e][1,2]thiazine-3-carboxamide 1,1-dioxide] |  |  | 268 to 271 °C | 55 µM | 650 µM |  |
| COc1cccc(CN2C(C(N)=O)=C(O)c3ccccc3S2(=O)=O)c1 [Compound 13f, 4-Hydroxy-2-(3-methoxybenzyl)-2H-benzo[e][1,2]thiazine-3-carboxamide 1,1-dioxide] |  |  | 273 to 275 °C | 50 µM | 640 µM |  |
| NC(=O)C1=C(O)c2ccccc2S(=O)(=O)N1Cc1ccccc1Cl [Compound 13g, 2-(2-Chlorobenzyl)-4-hydroxy-2H-benzo[e][1,2]thiazine-3-carboxamide 1,1-dioxide] |  |  |  | 40 µM | 650 µM |  |
| NC(=O)C1=C(O)c2ccccc2S(=O)(=O)N1Cc1ccc(Cl)cc1 [Compound 13h, 2-(4-Chlorobenzyl)-4-hydroxy-2H-benzo[e][1,2]thiazine-3-carboxamide 1,1-dioxide] |  |  |  | 55 µM | 610 µM |  |
| NC(=O)C1=C(O)c2ccccc2S(=O)(=O)N1Cc1ccccc1F [Compound 13j, 2-(2-Fluorobenzyl)-4-hydroxy-2H-benzo[e][1,2]thiazine-3-carboxamide 1,1-dioxide] |  |  | 268 to 273 °C | 35 µM | 680 µM |  |
| NC(=O)C1=C(O)c2ccccc2S(=O)(=O)N1Cc1cccc(F)c1 [Compound 13k, 2-(3-Fluorobenzyl)-4-hydroxy-2H-benzo[e][1,2]thiazine-3-carboxamide 1,1-dioxide] |  |  | 271 to 275 °C | 60 µM | 550 µM |  |
| NC(=O)C1=C(O)c2ccccc2S(=O)(=O)N1Cc1ccc(F)cc1 [Compound 13l, 2-(4-Fluorobenzyl)-4-hydroxy-2H-benzo[e][1,2]thiazine-3-carboxamide 1,1-dioxide] |  |  |  | 20 µM | 650 µM |  |
| NC(=O)C1=C(O)c2ccccc2S(=O)(=O)N1Cc1ccc([N+](=O)[O-])cc1 [Compound 13m, 4-Hydroxy-2-(4-nitrobenzyl)-2H-benzo[e][1,2]thiazine-3-carboxamide 1,1-dioxide] |  |  | 288 °C (dec.) | 25 µM | 650 µM |  |
| CN1C(C(=O)Nc2ccccn2)=C(O)c2ccccc2S1(=O)=O [Piroxicam, piroxicam, reference compound] |  |  |  |  | 900 µM | 120 µM |
| Cc1nnc(C(=O)NC(C)(C)c2nc(C(=O)NCc3ccc(F)cc3)c(O)c(=O)n2C)o1 [Raltegravir, raltegravir, reference compound] |  |  |  | 0.9 µM | > 500 µM |  |
